Normal melting temperature data for 2 compounds are collected here from the NIST ThermoML archive (doi:10.1016/j.fluid.2014.07.021).

Numbers after ± are expanded uncertainties.

For this data set the following is noted: Crystal; DTA.

In the case of `CCCCCCCCCCCCCCCCCCCCO` [1-eicosanol], the Normal melting temperature amounted to 64 ± 2 °C.
As for `CCCCCCCCCCCCCCO` [1-tetradecanol], the figure is 38 ± 2 °C.
